# Test results taken from paper PMC8232644, “Self-Supporting Hydrogels Based on Fmoc-Derivatized Cationic Hexapeptides for Potential Biomedical Applications” (Biomedicines, 2021).
# Residues, ends and D or L forms follow the SMILES beside them. *: point of attachment. Fmoc = O=C(OCC1c2ccccc2-c2ccccc21)*
# Tests used:
# [1] = Water solubility of peptides; assay type: physicochemical; settings: from solid: 10 mg lyophilized peptide in 1.0 mL water, sonicated 30 min at room temperature, centrifuged 5 min 13,000 rpm; UV at 301 nm (ε 7800 M^−1 cm^−1)
# Experimental: Peptide solutions were prepared by dissolving 10 mg of each lyophilized peptide in 1.0 mL of water. These suspensions were sonicated for 30 min at room temperature; after centrifugation (5 min at 13,000 rpm), the concentration was spectroscopically determined on UV–Vis Thermo Fisher Scientific Inc. (Wilmington, DE, USA) NanoDrop 2000 c spectrophotometer equipped with a 1.0 cm quartz cuvette (Hellma). The quantification of the concentration was assessed using the molar absorptivity (ε) of 7800 M^−1 cm^−1 for Fmoc group at λ = 301 nm.
# Due to their different sequence, each peptide has a different water solubility (see Table 2). […] The capability of peptides to self-assemble was initially checked by fluorescence spectroscopy, recording the emission spectra at the maximum concentration of the peptide. Peptides containing the FF motif were excited at both 257 and 301 nm, which corresponded to the excitation wavelength of phenyl and the Fmoc group, respectively, whereas peptides lacking FF were excited only at 301 nm. All the peptide derivatives, upon excitation at 301 nm, have an emission peak at 328 nm, red-shifted of 15 nm, with respect to the peak at 313 nm, which is expected for the monomeric form (see Figure S6).
# [2] = In vitro hydrogel degradation in Ringer's solution; assay type: physicochemical; settings: hydrogel with 1.5 mL Ringer’s solution at 37 °C for 20 days (method: 40 days); ΔW = (Wo − Wt)/Wo
# Experimental: In vitro hydrogel degradation assay was performed by adding a fixed amount (1.5 mL) of Ringer’s solution (12.9 mg of NaCl, 0.45 mg of KCl and 0.48 mg of CaCl2) to the preformed hydrogels and by placing them in an oven at 37 °C for 40 days. Hydrogels were weighed before the addition of the Ringer’s solution (Wo) and after its removal (Wt). The weight loss ratio (ΔW) was calculated as percentage according to Equation (2) ΔW = ((Wo − Wt))/Wo %(2)
# As potential tissue engineering matrices, PHG materials would be directly exposed to biological fluids. According to this consideration, the degradation test was performed to evaluate the matrices stability in an in vivo mimetic environment. The biological setting was mimed, incubating the hydrogels with Ringer’s solution at 37 °C for 20 days. The stability, reported as ΔW, calculated using Equation (2), was estimated as weight loss. ΔW values determined for Fmoc-K1, Fmoc-K2, and Fmoc-K3 were 43.2, 39.7, and 41.8%, respectively. In comparison to other FmocFF peptide-based hydrogels, all tested samples undergo faster and more remarkable degradation. This behavior is probably ascribable to the less rigid nature of Fmoc-K HGs. As an alternative, it can also be hypothesized that the large amount of salt in the Ringer’s solution could improve the solubility of K peptides and, in turn, accelerate the loss of 3D-organization of the matrix. It is worth it to note that an efficient in vivo degradation by biological fluids of hydrogels in their single components could allow achieving a rapid excretion of the matrix, which means a high biocompatibility.
# [3] = test system: 3T3-L1 cells; assay type: cell-based, mouse; settings: for Cell adhesion (% of adherent viable cells on seeded cells): 16 h; for cell viability of adherent cells: 72 h
# Experimental: (§1) Aneuploid immortal keratinocyte cell line HaCat and mouse pre-adipocyte cell line 3T3-L1 were obtained from IRCCS-SDN Biobank (10.5334/ojb.26) and grown in Dulbecco’s Modified Medium (DMEM) supplemented with 10% fetal bovine serum (FBS) and 1% GlutaMAX. Cells were incubated at 37 °C and 5% CO2 and seeded in 100 mm culture dishes.
# For the adhesion test, 3T3-L1 cells were seeded in 96-well plates at a density of 0.5 ×10^4 cells per well. Before seeding, each well was filled with the indicated hydrogels; 16 h after seeding, cells were stained with Acridine Orange/Propidium Iodide stain. Cell adhesion was reported as % of adherent viable cell (fluorescing green) on total plated cells. Viability upon adhesion was reported as % viable cells and total adherent cells. Duplication rate was reported as the ratio between viable cells upon 48 h from seeding and the number of viable adherent cells upon 16 h from seeding. In order to test the toxicity of hydrogels conditioned media, we used MTS assay, (CellTiter 96® AQueous One Solution Cell Proliferation Assay, Promega, Italy). For MTS assays, HaCat and 3T3-L1 cells were seeded in 96-well plates at a density of 0.7 × 10^4 cells per well. To obtain the conditioned media, hydrogels formed in a hollow plastic chamber sealed at one end with a porous membrane, were incubated with 2 mL of completed DMEM medium for 16 h in sterile condition at RT [23]. No color change of the media was detected following the incubation and the tested pH value (7.5–7.8) was suitable for culturing added to the wells. The conditioned media were used to grow the cells for 24, 48, and 72 h. At the end of the treatment, cell viability was assessed by the MTS assay. In brief, MTS was added to the cells at a final concentration of 0.5 mg/mL. After 30 min of incubation at 37 °C, the samples were analyzed using the VICTOR Nivo (Perkin Elmer, Buckinghamshire, UK) at 490 nm absorbance. Cell survival was expressed as percentage of viable cells in the presence of hydrogels, compared to control cells grown in their absence. MTS assay was repeated twice with similar results.
# To test the ability of the three hydrogels to support in vitro growth of eukaryotic cells, we culture 3T3-L1 (mouse fibroblast) cells on Fmoc-K1, K2, and K3. As first, we measured the number of cells able to adhere to hydrogels. An efficient cell adhesion is necessary for an optimal growth of the culture, and growth-supports un-favoring cell adhesion cause cell cycle arrest and induce apoptosis. […] Compared to cells plated in the absence of hydrogels, Fmoc-K1 and Fmoc-K2 disfavored cell adhesion, allowing cell attachment to 20 ± 3%, 36 ± 8% of the seeded cells, respectively.
# [4] = cited from earlier work
# Text: Hydrogels are matrices able to absorb water and swell in the media without dissolving. The calculated degree of swelling (q) was 55.2%, 56.6%, and 54.3% for Fmoc-K1, Fmoc-K2, and Fmoc-K3, respectively.
# [5] = test system: 3T3-L1 cells; assay type: cell-based, mouse; settings: 24 h
# Experimental: as §1
# For the adhesion test, 3T3-L1 cells were seeded in 96-well plates at a density of 0.5 ×10^4 cells per well. Before seeding, each well was filled with the indicated hydrogels; 16 h after seeding, cells were stained with Acridine Orange/Propidium Iodide stain. Cell adhesion was reported as % of adherent viable cell (fluorescing green) on total plated cells. Viability upon adhesion was reported as % viable cells and total adherent cells. […] No color change of the media was detected following the incubation and the tested pH value (7.5–7.8) was suitable for culturing added to the wells. […] At the end of the treatment, cell viability was assessed by the MTS assay. […] After 30 min of incubation at 37 °C, the samples were analyzed using the VICTOR Nivo (Perkin Elmer, Buckinghamshire, UK) at 490 nm absorbance. Cell survival was expressed as percentage of viable cells in the presence of hydrogels, compared to control cells grown in their absence. […]
Compound,solubility thermodynamic at 30 min [1] [µg/mL],weight loss ratio ΔW (stability) [2] [%],cell death of the attached cells [3] [%],Cell adhesion (% of adherent viable cells on seeded cells) [3] [%],cell viability of adherent cells [3] [%],swelling degree [4],viability (cell survival vs control) [5]
CC[C@H](C)[C@H](NC(=O)[C@H](C)NC(=O)[C@H](Cc1ccccc1)NC(=O)[C@H](Cc1ccccc1)NC(=O)OCC1c2ccccc2-c2ccccc21)C(=O)N[C@H](C(=O)N[C@@H](C)C(=O)NCC(=O)N[C@@H](CCCCN)C(N)=O)C(C)C [FmocFF-K3] (Fmoc-FFAIVAGK-NH2),345,–,–,–,–,–,–
CC[C@H](C)[C@H](NC(=O)[C@H](CC(C)C)NC(=O)OCC1c2ccccc2-c2ccccc21)C(=O)N[C@H](C(=O)N[C@@H](C)C(=O)NCC(=O)N[C@@H](CCCCN)C(N)=O)C(C)C [Fmoc-K2] (Fmoc-LIVAGK-NH2),2560,39.7,11 ± 2,36 ± 8,95 ± 3,–,–
CC[C@H](C)[C@H](NC(=O)[C@H](CC(C)C)NC(=O)[C@H](Cc1ccccc1)NC(=O)[C@H](Cc1ccccc1)NC(=O)OCC1c2ccccc2-c2ccccc21)C(=O)N[C@H](C(=O)N[C@@H](C)C(=O)NCC(=O)N[C@@H](CCCCN)C(N)=O)C(C)C [FmocFF-K2] (Fmoc-FFLIVAGK-NH2),253,–,–,–,–,–,–
Fmoc-diphenylalanine [FmocFF],–,–,–,–,–,around 40%,–
CC[C@H](C)[C@H](NC(=O)OCC1c2ccccc2-c2ccccc21)C(=O)N[C@@H](CC(C)C)C(=O)N[C@H](C(=O)N[C@@H](C)C(=O)NCC(=O)N[C@@H](CCCCN)C(N)=O)C(C)C [Fmoc-K1] (Fmoc-ILVAGK-NH2),1240,43.2,9 ± 3,20 ± 3,92 ± 3,–,above 70%
CC[C@H](C)[C@H](NC(=O)[C@H](Cc1ccccc1)NC(=O)[C@H](Cc1ccccc1)NC(=O)OCC1c2ccccc2-c2ccccc21)C(=O)N[C@@H](CC(C)C)C(=O)N[C@H](C(=O)N[C@@H](C)C(=O)NCC(=O)N[C@@H](CCCCN)C(N)=O)C(C)C [FmocFF-K1] (Fmoc-FFILVAGK-NH2),508,–,–,–,–,–,–
CC[C@H](C)[C@H](NC(=O)[C@H](C)NC(=O)OCC1c2ccccc2-c2ccccc21)C(=O)N[C@H](C(=O)N[C@@H](C)C(=O)NCC(=O)N[C@@H](CCCCN)C(N)=O)C(C)C [Fmoc-K3] (Fmoc-AIVAGK-NH2),3210,41.8,3 ± 1,85 ± 12,94 ± 3,–,–
